Test results as given in the RepoRT retention time repository.

Experiment: A: acetonitrile + 0.1% formic acid + 10 mM ammonium formate; B: 5% water + 95% acetonitrile + 0.1% formic acid + 10 mM ammonium formate; gradient (min/%B) 0/10 2/10 22/100 27/100 27.1/10
Conditions: stereoisomer not certain

LC retention time	SMILES
0.484 min	COc1ccc2nc(S(=O)Cc3ncc(C)c(OC)c3C)[nH]c2c1 (stereo not given) [Omeprazole]
7.71 min	NCCCC(N)C(=O)O (stereo not given) [Ornithine]
2.47 min	CCOC(=O)C1=CC(OC(CC)CC)C(NC(C)=O)C(N)C1 (stereo not given) [Oseltamivir]
1.88 min	O=c1[nH]c(=O)c2cn[nH]c2[nH]1 [Oxipurinol]
0.847 min	CCN(CC)CC#CCOC(=O)C(O)(c1ccccc1)C1CCCCC1 (stereo not given) [Oxybutynin]
1.19 min	Fc1ccc(C2CCNCC2COc2ccc3c(c2)OCO3)cc1 (stereo not given) [Paroxetine]
4.51 min	Nc1nc2c(ncn2CCC(CO)CO)c(=O)[nH]1 [Penciclovir]
0.553 min	CCCC(NC(C)C(=O)N1C(C(=O)O)CC2CCCCC21)C(=O)OCC (stereo not given) [Perindopril erbumine]
1.55 min	OCCN1CCN(CCCN2c3ccccc3Sc3ccc(Cl)cc32)CC1 [Perphenazine]
3.83 min	NC(=O)CCC(NC(=O)Cc1ccccc1)C(=O)O (stereo not given) [Phenyl-Ac-Gln-OH]
1.25 min	O=C(CCc1ccc(O)cc1)c1c(O)cc(O)cc1OC1OC(CO)C(O)C(O)C1O (stereo not given) [Phloridzin]
7.08 min	C=C(OP(=O)(O)O)C(=O)O [Phospho(enol)pyruvic Acid]
7.9 min	NC(COP(=O)(O)O)C(=O)O (stereo not given) [Phosphoserine]
0.963 min	O=C(O)c1ccccc1C(=O)O [Phthalic acid]
1.22 min	CCC1C(=O)OCC1Cc1cncn1C (stereo not given) [Pilocarpine]
0.909 min	O=C(O)CCCCCC(=O)O [Pimelic acid]
0.47 min	CCc1ccc(CCOc2ccc(CC3SC(=O)NC3=O)cc2)nc1 (stereo not given) [Pioglitazone]
0.44 min	O=C(C=CC=Cc1ccc2c(c1)OCO2)N1CCCCC1 [Piperine]
0.44 min	CN1C(C(=O)Nc2ccccn2)=C(O)c2ccccc2S1(=O)=O [Piroxicam]
2.3 min	CCN(CC)CCNC(=O)c1ccc(N)cc1 [Procainamide]

LC retention time	SMILES
0.425 min	CC(=O)C1CCC2C3CCC4=CC(=O)CCC4(C)C3CCC12C (stereo not given) [Progesterone]
0.952 min	CC(CN1c2ccccc2Sc2ccccc21)N(C)C (stereo not given) [Promethazine]
0.478 min	CCCOC(=O)c1cc(O)c(O)c(O)c1 [Propyl gallate]
1.01 min	c1ncc2[nH]cnc2n1 [Purine]
5.97 min	Cc1ncc(COP(=O)(O)O)c(C=O)c1O [Pyridoxal 5'-phosphate]
0.981 min	Cc1ncc(CO)c(C=O)c1O [Pyridoxal]
6.5 min	Cc1ncc(CO)c(CN)c1O [Pyridoxamine]
1.92 min	Cc1ncc(CO)c(CO)c1O [Pyridoxine]
0.592 min	O=c1c(O)c(-c2ccc(O)c(O)c2)oc2cc(O)cc(O)c12 [Quercetin]
3.99 min	CCN(CC)CCCC(C)Nc1c2ccc(Cl)cc2nc2ccc(OC)cc12 (stereo not given) [Quinacrine]
1.48 min	O=C(O)c1ccc2ccccc2n1 [Quinaldic acid]
1.42 min	O=C(c1ccc(OCCN2CCCCC2)cc1)c1c(-c2ccc(O)cc2)sc2cc(O)ccc12 [Raloxifene]
3.12 min	CNC(=C[N+](=O)[O-])NCCSCc1ccc(CN(C)C)o1 [Ranitidine]
0.769 min	COC(=O)C1C2CC3c4[nH]c5cc(OC)ccc5c4CCN3CC2CC(OC(=O)c2cc(OC)c(OC)c(OC)c2)C1OC (stereo not given) [Reserpine]
0.433 min	CC(C=CC1=C(C)CCCC1(C)C)=CC=CC(C)=CC(=O)O [Retinoic Acid]
0.776 min	CCN(CC)c1ccc2c(-c3ccccc3C(=O)[O-])c3ccc(=[N+](CC)CC)cc-3oc2c1 [Rhodamine B]
3.11 min	NC(=O)c1ncn(C2OC(CO)C(O)C2O)n1 (stereo not given) [Ribavirin]
6.38 min	Cc1cc2nc3c(=O)[nH]c(=O)nc-3n(CC(O)C(O)C(O)COP(=O)(O)O)c2cc1C (stereo not given) [Riboflavin 5'-Monophosphate]
3.65 min	Cc1cc2nc3c(=O)[nH]c(=O)nc-3n(CC(O)C(O)C(O)CO)c2cc1C (stereo not given) [Riboflavin]
2.42 min	Cc1nc2n(c(=O)c1CCN1CCC(c3noc4cc(F)ccc34)CC1)CCCC2 [Risperidone]

LC retention time	SMILES
4.42 min	CC1OC(OCC2OC(Oc3c(-c4ccc(O)c(O)c4)oc4cc(O)cc(O)c4c3=O)C(O)C(O)C2O)C(O)C(O)C1O (stereo not given) [Rutin]
8.08 min	C[S+](CC[C@H](N)C(=O)[O-])C[C@H]1O[C@@H](n2cnc3c(N)ncnc32)[C@H](O)[C@@H]1O (stereo partly drawn) [S-(5'-Adenosyl)-L-methionine]
3.16 min	CC(C)(C)NCC(O)c1ccc(O)c(CO)c1 (stereo not given) [Salbutamol]
0.448 min	NC(=O)c1ccccc1O [Salicylamide]
0.474 min	COc1cc(C2Oc3cc(C4Oc5cc(O)cc(O)c5C(=O)C4O)ccc3OC2CO)ccc1O (stereo not given) [Silibinin]
0.561 min	COc1cc(C=CC(=O)O)cc(OC)c1O [Sinapic acid]
0.486 min	CC=CC=CC(=O)O [Sorbic acid]
9.6 min	NCCCNCCCCNCCCN [Spermine]
4.85 min	C=C1CC23CCC4C(C)(C(=O)OC5OC(CO)C(O)C(O)C5O)CCCC4(C)C2CCC1(OC1OC(CO)C(O)C(O)C1OC1OC(CO)C(O)C(O)C1O)C3 (stereo not given) [Stevioside]
0.712 min	O=C(O)CCCCCCC(=O)O [Suberic acid]
5.46 min	O=C(O)CCCCCCC(=O)NCC(=O)O [Suberyl Glycine]
6.27 min	OCC1OC(OC2(CO)OC(CO)C(O)C2O)C(O)C(O)C1O (stereo not given) [Sucrose]
0.449 min	Cc1noc(NS(=O)(=O)c2ccc(N)cc2)c1C [Sulfisoxazole]
0.56 min	CC1=C(CC(=O)O)c2cc(F)ccc2C1=Cc1ccc(S(C)=O)cc1 (stereo not given) [Sulindac]
0.457 min	CN1CC(=O)N2C(Cc3c([nH]c4ccccc34)C2c2ccc3c(c2)OCO3)C1=O (stereo not given) [Tadalafil]
0.887 min	CCC(=C(c1ccccc1)c1ccc(OCCN(C)C)cc1)c1ccccc1 [Tamoxifen]
5.82 min	NCCS(=O)(=O)O [Taurine]
2.71 min	CC(CCC(=O)NCCS(=O)(=O)O)C1CCC2C3CCC4CC(O)CCC4(C)C3CC(O)C12C (stereo not given) [Taurodeoxycholic acid]
2.7 min	CC(CCC(=O)NCCS(=O)(=O)O)C1CCC2C3C(O)CC4CC(O)CCC4(C)C3CCC12C (stereo not given) [Tauroursodeoxycholic acid]
0.687 min	Cn1cnc2c1c(=O)[nH]c(=O)n2C [Theobromine]

SMILES	LC retention time
NCC(O)c1ccc(O)cc1 (stereo not given) [Octopamine]	3.85 min
O=C(O)C(c1ccccc1)C1CCCCN1 (stereo not given) [Ritalinic Acid]	3.41 min
C=C(C)C1Cc2c(ccc3c2OC2COc4cc(OC)c(OC)cc4C2C3=O)O1 (stereo not given) [Rotenone]	0.416 min
NCCc1c[nH]c2ccc(O)cc12 [Serotonin]	3.29 min
CNCC(O)c1ccc(O)cc1 (stereo not given) [Synephrine]	3.2 min
